Data reported in paper PMC3914891, “Pentacyclic Nitrofurans with In Vivo Efficacy and Activity against Nonreplicating Mycobacterium tuberculosis” (PLoS ONE, 2014).
In brackets after ≈: the same amount, converted by molar mass. Read-outs that look alike come from different tables or passages of the source. Marks after values point to notes of the source that are not given here.

Tests used:
[1] = test system: hypoxic M. tuberculosis strain H37Rv; experiment: NRP bacteria under hypoxia (rapid anaerobic dormancy model); format: cell-based, Mycobacterium tuberculosis
[2] = mouse, plasma; cited from earlier work
[3] = test system: Proteus mirabilis(ATCC 25933); experiment: MIC, spectrum of activity: Proteus mirabilis; format: cell-based; conditions: ATCC25933
[4] = test system: M. tuberculosis strain H37Rv (mid-log and nutrient-starved); experiment: Nutrient starvation model of nonreplicating persisters; format: cell-based, Mycobacterium tuberculosis
[5] = test system: Pseudomonas aeruginosa (PA01); experiment: microbe, parasite or virus in culture; format: cell-based
[6] = In vitro cytotoxicity against Vero cells; conditions: African green monkey, Vero cells (kidney epithelial cells, ATCC CCL-81)
Vero cells = experiment: In vitro cytotoxicity against Vero cells
[7] = test system: M. abscessus (ATCC 19977); experiment: MIC, non-tuberculosis mycobacteria: M. abscessus; format: cell-based; conditions: Mycobacteroides abscessus, ATCC19977, 72 h; broth dilution, visual inspection, 3 days; range of at least two independent experiments; read-out: Minimum Inhibitory Concentration, M. abscessus
M. tuberculosis = experiment: MIC determination, microbroth dilution, M. tuberculosis; format: cell-based, Mycobacterium tuberculosis; conditions: for MIC: Mycobacterium tuberculosis
[8] = cited from earlier work
M. kansasii (ATCC 12478) = experiment: MIC, non-tuberculosis mycobacteria: M. kansasii; format: cell-based; conditions: Mycobacterium kansasii, ATCC12478, 168 h; broth dilution, visual inspection, 7 days; read-out: Minimum Inhibitory Concentration, M. kansasii
[9] = test system: Streptococcus pyogenes (ATCC 700294); experiment: MIC, spectrum of activity: S.py; format: cell-based; conditions: ATCC700294, read-out: Minimum Inhibitory Concentration, S. Py.
[10] = test system: Burkholderia cepacia (ATCC 25416); experiment: MIC, spectrum of activity: B.c.; format: cell-based; conditions: ATCC25416, read-out: Minimum Inhibitory Concentration, B.c.
[11] = test system: Streptococcus pneumoniae (R6); experiment: MIC, spectrum of activity: S.pn; format: cell-based; conditions: read-out: Minimum Inhibitory Concentration, S. Pn.
M. ulcerans (ATCC 35840) = experiment: MIC by agar proportion method: M. ulcerans; format: cell-based; conditions: Mycobacterium ulcerans, ATCC35840, 672 h; agar proportion method, 4 weeks; read-out: Minimum Inhibitory Concentration, M. ulcerans
H37Rv-wt = experiment: microbe, parasite or virus in culture; format: cell-based, M. tuberculosis; conditions: Mycobacterium tuberculosis
[12] = test system: Stenotrophomonas maltophilia (ATCC 13637); experiment: MIC, spectrum of activity: S.m.; format: cell-based; conditions: ATCC13637, read-out: Minimum Inhibitory Concentration, S.m.
[13] = test system: Bacillus anthracis sterne 34F2; experiment: microbe, parasite or virus in culture; format: cell-based; conditions: STERNE34F2, read-out: Minimum Inhibitory Concentration, B.a.
[14] = test system: Escherichia coli (ATCC 700926); experiment: MIC, spectrum of activity: E.c.; format: cell-based; conditions: ATCC700926, read-out: Minimum Inhibitory Concentration, E.c.
[15] = rat, in vivo, cited from earlier work
[16] = test system: Klebsiella pneumoniae (ATCC 33495); experiment: MIC, spectrum of activity: Klebsiella pneumoniae; format: cell-based; conditions: ATCC33495
[17] = test system: Bacillus subtilis (ATCC 23857); experiment: MIC, spectrum of activity: B.s.; format: cell-based; conditions: ATCC23857, read-out: Minimum Inhibitory Concentration, B.s.
M. avium (ATCC 25291) = experiment: MIC, non-tuberculosis mycobacteria: M. avium; format: cell-based; conditions: Mycobacterium avium, ATCC25291, 168 h; broth dilution, visual inspection, 7 days; read-out: Minimum Inhibitory Concentration, M. avium
M. tuberculosis H37Rv = experiment: Minimum bactericidal concentration determination; format: cell-based, Mycobacterium tuberculosis
[18] = test system: Staphylococcus aureus (ATCC 29213); experiment: MIC, spectrum of activity: S.a.; format: cell-based; conditions: ATCC29213, read-out: Minimum Inhibitory Concentration, S.a
[19] = test system: Enterococcus faecalis (ATCC 33186); experiment: MIC, spectrum of activity: E.f.; format: cell-based; conditions: ATCC33186, read-out: Minimum Inhibitory Concentration, E.f.
M. fortuitum (ATCC 6841) = experiment: MIC, non-tuberculosis mycobacteria: M. fortuitum; format: cell-based; conditions: Mycolicibacterium fortuitum, ATCC6841, 72 h; broth dilution, visual inspection, 3 days; read-out: Minimum Inhibitory Concentration, M. fortuitum
[20] = test system: Acinetobacter baumannii (ATCC 19606); experiment: MIC, spectrum of activity: Acinetobacter baumannii; format: cell-based; conditions: ATCC19606
M. tuberculosis Erdman = conditions: for Log10CFU Reduction (SEM), lungs / Log10CFU Reduction (SEM), spleen: vs untreated
in vitro = conditions: mouse, microsomes
[21] = group 1: 9a 300 mg/kg QD oral, 9 days, in 0.5% methylcellulose in DI-H2O
[22] = group 2: 9a 300 mg/kg QD oral, 9 days, in 30% Captisol in DI-H2O
[23] = group 3: 9a 300 mg/kg QD oral, 9 days, in 10% Vitamin E TPGS in DI-H2O
[24] = group 4: 9a 300 mg/kg QD oral, 9 days, in 0.5% Tween 80 in DI-H2O
[25] = group 5: 9a 300 mg/kg QD oral, 9 days, in 20% cyclodextrin in DI-H2O
[26] = group 6: 9a 300 mg/kg QD oral, 9 days, in cold PEG (50:35:15 H2O:PEG300:PG)

For O=[N+]([O-])c1ccc(C2=NOC(c3ccc(N4CCC(Oc5ccc(OC(F)(F)F)cc5)CC4)cc3)C2)o1 (stereo not drawn) [Compound 9a, 3-(5-Nitrofuran-2-yl)-5-(4-(4-(4-(trifluoromethoxy)phenoxy)piperidin-1-yl)phenyl)-4,5-dihydroisoxazole], which “% Growth vs. Control” value [1] is on record?
Its value is <0.1%.

And the “killing of hypoxic bacilli” value ([1]; 10 µg/mL, NRP-2 bacilli)?
The value was > 99.9%.

What about the “Plasma Protein binding” value [2] of the same compound?
The value was 99.9 ^h %.

And the MIC [3]?
The MIC was > 200 µg/mL.

And the “reduction in viability (killing) of actively growing culture” value [4]?
Its value is 80%.

What about the “reduction in viability of nutrient starved bacilli” value [4] of the same compound?
The value was 80%.

And the MIC [5]?
The MIC was > 200 µg/mL.

What about the IC50 [6] of the same compound?
Its IC50 is 19.4 µg/mL (≈ 37.5 µM).

What about the “Selective Index (Cytox/MIC)” value (Vero cells) of the same compound?
Its value is 808.

What about the MIC [7] of the same compound?
Its MIC is 12.5 µg/mL (≈ 24.2 µM).

What about the “fold more potent than PA-824 (MIC)” value (M. tuberculosis; M. tuberculosis MIC compared with PA-824) of the same compound?
Its value is 20 fold.

And the MIC (M. tuberculosis; 168 h, read-out: M. tb. MIC)?
The MIC was 0.024 µg/mL.

And the MIC (M. tuberculosis; M. tuberculosis, […], read-out: MIC)?
The MIC was 0.046 µM.

What about the “Solubility (pH 7.4)” value [8] of the same compound?
Its value is 2.7 ^h µg/mL.

What about the MIC (M. kansasii (ATCC 12478)) of the same compound?
Its MIC is 3.13 to 6.25 µg/mL (≈ 6.05 to 12.1 µM).

What about the MIC [9] of the same compound?
Its MIC is 200 µg/mL (≈ 387 µM).

What about the MIC [10] of the same compound?
The MIC was 50 µg/mL (≈ 96.6 µM).

What about the MIC [11] of the same compound?
The MIC was 100 µg/mL (≈ 193 µM).

And the MIC (M. ulcerans (ATCC 35840))?
Its MIC is 0.02 to 0.05 µg/mL (≈ 0.0387 to 0.0966 µM).

What about the MIC (H37Rv-wt) of the same compound?
Its MIC is 0.025 µg/mL (≈ 0.0483 µM).

And the MIC [12]?
The MIC was 25 µg/mL (≈ 48.3 µM).

What about the MIC [13] of the same compound?
Its MIC is 12.5 µg/mL (≈ 24.2 µM).

And the MIC [14]?
The MIC was > 200 µg/mL.

What about the Vd ([15]; iv, 10 mg/kg) of the same compound?
The Vd was 6.72 (1.10) L/kg.

What about the “fe (fraction excreted unchanged in urine)” value ([15]; iv, 10 mg/kg) of the same compound?
The value was 0.04 (0.01) %.

And the “AUC0-∞” value ([15]; po, 100 mg/kg)?
Its value is 10.2 (9.1) mg h/L.

And the “Cmin,24 h” value ([15]; po, 100 mg/kg)?
Its value is 0.17 (0.16) mg/L.

What about the Cmax [15] of the same compound?
Its Cmax is 850 ng/mL.

And the “Cmin,24 h” value [15]?
Its value is 0.17 µg/mL.

What about the MIC [16] of the same compound?
Its MIC is > 200 µg/mL.

And the MIC [17]?
The MIC was 100 µg/mL (≈ 193 µM).

And the MIC (M. avium (ATCC 25291))?
The MIC was 200 µg/mL (≈ 387 µM).

What about the MBC (M. tuberculosis H37Rv) of the same compound?
Its MBC is 3.13–6.25.

And the Classification (M. tuberculosis H37Rv; cidal or static from MBC versus MIC)?
Its Classification is “Static (static (MBC/MIC >4))”.

And the MIC [18]?
The MIC was 50 µg/mL (≈ 96.6 µM).

What about the MIC [19] of the same compound?
The MIC was > 200 µg/mL.

What about the MIC (M. fortuitum (ATCC 6841)) of the same compound?
Its MIC is 6.25 to 12.5 µg/mL (≈ 12.1 to 24.2 µM).

What about the MIC [20] of the same compound?
Its MIC is > 200 µg/mL.

What about the “reduction of bacterial load in lungs” value (M. tuberculosis Erdman; GKO mice, 300 mg/kg oral daily, 9 days, across formulations) of the same compound?
The value was 91–97%.

And the “reduction in bacillary load, lungs and spleens” value (M. tuberculosis Erdman; GKO mice, after 9 days of treatment)?
Its value is > 90%.

What about the tolerability (M. tuberculosis Erdman; GKO mice, daily oral administration at 300 mg/kg, 9 days, each of six formulations) of the same compound?
The tolerability was “well tolerated”.

What about the “Log10CFU Reduction (SEM), lungs” value (M. tuberculosis Erdman; [21]) of the same compound?
Its value is 1.06 (0.18) Log10CFU.

What about the “Log10CFU Reduction (SEM), lungs” value (M. tuberculosis Erdman; [22]) of the same compound?
Its value is 1.30 (0.20) Log10CFU.

What about the “Log10CFU Reduction (SEM), lungs” value (M. tuberculosis Erdman; [23]) of the same compound?
Its value is 1.47 (0.18) Log10CFU.

What about the “Log10CFU Reduction (SEM), lungs” value (M. tuberculosis Erdman; [24]) of the same compound?
The value was 1.38 (0.16) Log10CFU.

And the “Log10CFU Reduction (SEM), lungs” value (M. tuberculosis Erdman; [25])?
Its value is 1.08 (0.15) Log10CFU.

And the “Log10CFU Reduction (SEM), lungs” value (M. tuberculosis Erdman; [26])?
The value was 1.10 (0.21) Log10CFU.

What about the “Log10CFU (SEM), lungs” value (M. tuberculosis Erdman; [21]) of the same compound?
The value was 7.01 (0.11) Log10CFU.

What about the “Log10CFU (SEM), lungs” value (M. tuberculosis Erdman; [22]) of the same compound?
Its value is 6.77 (0.14) Log10CFU.

What about the “Log10CFU (SEM), lungs” value (M. tuberculosis Erdman; [23]) of the same compound?
Its value is 6.61 (0.11) Log10CFU.

And the “Log10CFU (SEM), lungs” value (M. tuberculosis Erdman; [24])?
Its value is 6.69 (0.07) Log10CFU.

What about the “Log10CFU (SEM), lungs” value (M. tuberculosis Erdman; [25]) of the same compound?
The value was 6.99 (0.06) Log10CFU.

What about the “Log10CFU (SEM), lungs” value (M. tuberculosis Erdman; [26]) of the same compound?
The value was 6.99 (0.15) Log10CFU.

What about the “Log10CFU Reduction (SEM), spleen” value (M. tuberculosis Erdman; [21]) of the same compound?
Its value is 0.95 (0.18) Log10CFU.

What about the “Log10CFU Reduction (SEM), spleen” value (M. tuberculosis Erdman; [22]) of the same compound?
Its value is 1.48 (0.17) Log10CFU.

What about the “Log10CFU Reduction (SEM), spleen” value (M. tuberculosis Erdman; [23]) of the same compound?
Its value is 1.77 (0.27) Log10CFU.

And the “Log10CFU Reduction (SEM), spleen” value (M. tuberculosis Erdman; [24])?
Its value is 1.17 (0.18) Log10CFU.

What about the “Log10CFU Reduction (SEM), spleen” value (M. tuberculosis Erdman; [25]) of the same compound?
Its value is 1.44 (0.16) Log10CFU.

And the “Log10CFU Reduction (SEM), spleen” value (M. tuberculosis Erdman; [26])?
The value was 1.03 (0.20) Log10CFU.

What about the “Log10CFU (SEM), spleen” value (M. tuberculosis Erdman; [21]) of the same compound?
The value was 6.25 (0.11) Log10CFU.

What about the “Log10CFU (SEM), spleen” value (M. tuberculosis Erdman; [22]) of the same compound?
The value was 5.72 (0.09) Log10CFU.

And the “Log10CFU (SEM), spleen” value (M. tuberculosis Erdman; [23])?
The value was 5.43 (0.23) Log10CFU.

What about the “Log10CFU (SEM), spleen” value (M. tuberculosis Erdman; [24]) of the same compound?
Its value is 6.03 (0.12) Log10CFU.

What about the “Log10CFU (SEM), spleen” value (M. tuberculosis Erdman; [25]) of the same compound?
The value was 5.76 (0.08) Log10CFU.

And the “Log10CFU (SEM), spleen” value (M. tuberculosis Erdman; [26])?
Its value is 6.17 (0.14) Log10CFU.

And the half-life (in vitro)?
Its half-life is 5.06 h.
